Assay results reported in the NIST ThermoML archive (doi:10.1016/j.jct.2014.12.017).
± gives the expanded uncertainty stated by the source.

assay: wn = mass fraction of the nth substance listed; settings: 297.15 K; 101 kPa; Liquid; Alternating current cell with electrodes; w1 = 0.1

Structure (SMILES)	electrical conductivity [S/m]
CCCCn1cc[n+](C)c1.O=S(=O)([O-])O [1-butyl-3-methylimidazolium hydrogen sulfate] + O	7.63 ± 0.08
CCCCn1cc[n+](C)c1.COS(=O)(=O)[O-] [1-butyl-3-methylimidazolium methyl sulfate] + O	1.727 ± 0.017
CCCCn1cc[n+](C)c1.O=S(=O)([O-])C(F)(F)F [1-butyl-3-methylimidazolium trifluoromethanesulfonate] + O	1.38 ± 0.014
CCCCn1cc[n+](C)c1.[Cl-] [1-butyl-3-methylimidazolium chloride] + O	3.43 ± 0.03
CCCCn1cc[n+](C)c1.[Br-] [1-butyl-3-methylimidazolium bromide] + O	2.87 ± 0.03
CCCCn1cc[n+](C)c1.[O-][Cl+3]([O-])([O-])[O-] [1-butyl-3-methylimidazolium perchlorate] + O	2.18 ± 0.02
Cn1cc[n+](CCO)c1.[Br-] [3-(2-hydroxyethyl)-1-methyl-1H-imidazolium bromide] + O	3.58 ± 0.04
CCCCn1cc[n+](C)c1.N#CN=C=[N-] [1-butyl-3-methylimidazolium dicyanamide] + O	1.9 ± 0.019
C[n+]1ccn(CCO)c1.[Cl-] [1-(2-hydroxyethyl)-3-methyl-1H-imidazolium chloride] + O	4.19 ± 0.04
